We go through 13 compounds from patent publication US20080032918A1, “Mast cell-derived renin” (Cornell Research Foundation, Inc., priority 2003, published 2008).

“Also recorded” adds a separate entry of the source.

In test [1] the test system is SH-SY5Y-AT1A cells. Description: intracellular calcium in Fura-2 loaded SH-SY5Y-AT1A cells. It is filed as cell-based, human. As to the method: The next series of experiments were used to outline the major signaling steps in angiotensin II-evoked release of norepinephrine from sympathetic nerve endings. In particular, experiments were designed to ascertain whether stimulation of PLC might result in an increase in intracellular calcium via IP3 generation. Intracellular calcium (Cai) was measured at the individual cell level using Fura-2 loaded SH-SY5Y-AT1A cells (McDonald et al., Neurosci. Lett. 199: 115-118, 1995; Silver et al., Proc. Natl. Acad. Sci. USA 99: 501-506, 2002).
As discussed above, PLC activation may be an early signaling step in mediating this angiotensin II-induced Ca^2+ transient. The PLC inhibitor U-73122 (1 μM) was used to verify this hypothesis. FIG. 21B is a representative trace from one Fura-2 loaded SH-SY5Y-ATIA cell pre-exposed to U-73122.
In general terms: Calcium flux is commonly read through the fluorescence of an indicator in the cells.

Test [2] concerns cardiac sympathetic nerve endings. Description: angiotensin II-evoked norepinephrine release from cardiac sympathetic nerve endings. The note with it: for decrease of angiotensin II-induced norepinephrine release / effect on norepinephrine release induced by angiotensin II (FIG. 20): EIPA 30 μM, U-73122 1 μM; for decrease of angiotensin II-induced norepinephrine release: DMI 300 nM; for effect on norepinephrine release induced by angiotensin II (FIG. 20): DMI 300 μM.
Protocol: Briefly, male Hartley guinea pigs were anesthetized with CO2 vapor and then exsanguinated. Hearts were perfused through the aorta for 15 min at constant pressure with Ringer's solution at 37° C. […] Hearts were minced in 0.32 M sucrose containing 1 mM EGTA. The minced tissue was then digested with 75 mg collagenase per 10 ml HBS per gm for 1 hr at 37° C. After low speed centrifugation the resulting pellet were suspended in 10 volumes of 0.32 M sucrose and homogenized with a Teflon/glass homogenizer. The homogenate was centrifuged at 650g for 10 min, the pellet was re-homogenized and the homogenate was centrifuged again. The pellet containing cellular debris was discarded, the supernatants from the last two spins were combined, the pooled supernatant was equally subdivided into 4 to 8 tubes and re-centrifuged for 20 min at 20,000g at 4° C. This pellet contains cardiac sympathetic nerve endings. The pellet was resuspended either in HEPES-buffered saline (HBS; 500 μl, normoxic conditions) or in glucose-free HBS, which contained the reducing agent sodium dithionite (500 μl, ischemic conditions), and incubated in the absence or presence of angiotensinogen (1 hr) or other agents for 20 min at 37° C. prior to ischemia (see below). Each suspension was used only once as an independent sample.
Norepinephrine assay: Coronary effluent and synaptosome supernatant will be assayed for NE by HPLC with electrochemical detection (ESA). […] The detection limit is about 0.2 pmol.

For test [3], the system named is Na+/H+ exchanger. Description: Na+/H+ exchanger activity in BCECF-loaded SH-SY5Y-AT1A cells. It is filed as cell-based, human. As to the method: Similarly, Na^+/H^+ exchanger activity was measured in response to angiotensin II at the individual cell level in BCECF-loaded SH-SY5Y-AT1A cells. […] Exposing the cells to BAPTA-AM (10 μM) prior to angiotensin II, prevented the angiotensin II-induced increase in Na^+/H^+ exchanger activity.

The next test relates to human lung mast cells. Conditions: cited from earlier work.
Test [4] concerns cardiac sympathetic nerve endings. Description: norepinephrine release from isolated cardiac sympathetic nerve endings incubated with angiotensinogen. It is filed as cell-based, guinea pig. From the text:
Preparation ofguinea-pig sympathetic nerve endings: Cardiac sympathetic nerve endings were isolated from guinea-pig hearts as previously described (Seyedi et al., J Pharmacol Exp Ther 290: 656-663, 1999; Seyedi et al., Circ. Res. 81: 774-784, 1997). Spontaneously beating hearts were isolated as previously described by the inventors (Hatta et al., J. Pharmacol. Exp. Ther. 288: 919-927, 1999; Park et al., Circ. Res. 71: 992-1001, 1992). Briefly, male Hartley guinea pigs were anesthetized with CO2 vapor and then exsanguinated. Hearts were perfused through the aorta for 15 min at constant pressure with Ringer's solution at 37° C. (Park et al., Circ. Res. 71: 992-1001, 1992) to exclude blood from the coronary circulation. Hearts were minced in 0.32 M sucrose containing 1 mM EGTA. The minced tissue was then digested with 75 mg collagenase per 10 ml HBS per gm for 1 hr at 37° C. After low speed centrifugation the resulting pellet were suspended in 10 volumes of 0.32 M sucrose and homogenized with a Teflon/glass homogenizer. The homogenate was centrifuged at 650g for 10 min, the pellet was re-homogenized and the homogenate was centrifuged again. The pellet containing cellular debris was discarded, the supernatants from the last two spins were combined, the pooled supernatant was equally subdivided into 4 to 8 tubes and re-centrifuged for 20 min at 20,000g at 4° C. This pellet contains cardiac sympathetic nerve endings. The pellet was resuspended either in HEPES-buffered saline (HBS; 500 μl, normoxic conditions) or in glucose-free HBS, which contained the reducing agent sodium dithionite (500 μl, ischemic conditions), and incubated in the absence or presence of angiotensinogen (1 hr) or other agents for 20 min at 37° C. prior to ischemia (see below). Each suspension was used only once as an independent sample.
Norepinephrine assay: Coronary effluent and synaptosome supernatant will be assayed for NE by HPLC with electrochemical detection (ESA). […]

For test [5], the system named is Na+/H+ exchanger. Kind of test: Na+/H+ exchanger activity (acid pulse protocol) in cardiac sympathetic nerve endings. Format: cell-based, guinea pig. Conditions: angiotensin II 10 nM; for increase in Na+/H+ exchanger activity over control: norepinephrine 1 μM. The method, then: Na^+/H^+ exchanger activity was assayed by measuring the rate of Na^+-dependent intracellular alkalinization in response to an acid load (NH4Cl). An example of the “acid pulse protocol” used to show Na^+/H^+exchanger activity in dye-loaded (BCECF-loaded) sympathetic nerve endings from guinea pig heart is shown in FIG. 18A. This protocol was performed under HEPES-buffered conditions. All of the solutions perfusing the tissue were osmotically balanced using N-methyl-D-glucamine substitution as previously described (Silver et al., Am. J. Physiol. Renal Physiol. 279: F195-F202, 2000; Silver et al., Am. J. Physiol. 275: F94-102, 1998). As shown in the representative tracing in FIG. 18A, guinea-pig heart sympathetic nerve endings, attached to a cover slip and pre-loaded with BCECF to monitor intracellular pH, were initially bathed in a balanced salt solution (Na Ringer's solution).
The slope of this alkalinization of Na^+/H^+ exchanger activity, represented by the dashed line in FIG. 18A, was 0.04 pH units/min. […] Mean Na^+/H^+ exchanger activities measured in cardiac sympathetic nerve endings in this pilot study are compared in FIG. 18C.

Test [6] has as its system SH-SY5Y-AT1A cells. Description: [3H]MPP+ release from SH-SY5Y-AT1A cells.
Description: Efflux was arrested after 10-min exposure to angiotensin II.
Another test concerns guinea-pig hearts. Kind of test: ischemia-reperfusion in guinea pig hearts ex vivo (Langendorff). Conditions: 20-min global ischemia, 45-min reperfusion, lodoxamide 10 μM; for ventricular fibrillation during reperfusion: BILA2157 100 nM. As to the method:
Ischemia-reperfusion in guinea pig hearts ex vivo: Guinea-pig hearts will be perfused for 30 min prior to ischemia. Inamura et al., Circ. Res. 78: 475-481 (1996). Normothermic 20-min global ischemia will be induced by complete cessation of coronary perfusion, followed by 45-min reperfusion. Coronary effluent will be assayed for renin activity and NE.
Guinea-pig hearts were perfused ex vivo at constant pressure in a Langendorff apparatus and subjected to 20-min. stop-flow global ischemia, followed by 45-min. reperfusion (Hatta, E., R. Maruyama, S. J. Marshall, M. Imamura, and R. Levi. Bradykinin promotes ischemic norepinephrine release in guinea pig and human hearts. J. Pharmacol. Exp. Ther. 288: 919-927 (1999)). Surface ECG and coronary flow were continuously monitored; the coronary effluent was assayed for renin activity (i.e., ANG I generated as described herein). There was no detectable renin in the coronary effluent prior to ischemia. With reperfusion, there was significant renin overflow into the coronary effluent accompanied by ventricular fibrillation (VF) (FIG. 12).
Traces in the left panels were recorded at the end of the equilibration period prior to ischemia, showing normal sinus rhythm.

The test system of a further test is cardiac mast cells. Kind of test: renin in coronary effluent of normoxic Langendorff-perfused hearts challenged with 48/80. Details: species or system guinea pig. Conditions: lodoxamide 10 μM or BILA 2157 100 nM prior to 48/80. As to the method:
Renin was measured in the coronary effluent of normoxic Langendorff-perfused guinea-pig hearts, ex vivo. […] When hearts were perfused with the mast-cell stabilizer lodoxamide (FIG. 9B) or the renin inhibitor BILA2157 prior to 48/80 challenge (FIGS. 9A and B), renin overflow was abolished.

In test [7] the test system is isolated normoxic guinea pig hearts. Description: chronotropic response and norepinephrine overflow in normoxic isolated hearts challenged with 48/80. The note with it: BILA 2157 100 nM, lodoxamide 30 μM. From the text:
These findings indicate that cardiac mast cells are capable of releasing active renin, which then leads to local formation of ANG II causing norepinephrine exocytosis.

In the case of `COc1ccc2c(c1)CC[C@@H]1[C@@H]2CC[C@]2(C)[C@@H](NCCCCCCN3C(=O)C=CC3=O)CC[C@@H]12` [U-73122], the “effect on angiotensin II-induced intracellular calcium transient” value in the test on SH-SY5Y-AT1A cells [1] (U-73122 1 μM) was “prevented”. Also, in test [2], the “decrease of angiotensin II-induced norepinephrine release” value (shortened to “decrease”) is given as “about 60%”. Also, the “effect on norepinephrine release induced by angiotensin II (FIG. 20)” value (“effect on norepinephrine release induced” below) in test [2] (angiotensin II 100 nM) is “blocked”.
`CC(=O)OCOC(=O)CN(CC(=O)OCOC(C)=O)c1ccccc1OCCOc1ccccc1N(CC(=O)OCOC(C)=O)CC(=O)OCOC(C)=O` [BAPTA-AM]: the “effect on angiotensin II-induced increase in Na+/H+ exchanger activity” value in the test with Na+/H+ exchanger [3] (10 μM prior to angiotensin II 10 nM) is recorded as “prevented”.
`O=C(O)c1cc(=O)c2c(OCC(O)COc3cccc4oc(C(=O)O)cc(=O)c34)cccc2o1` [disodium cromoglycate]: the “inhibition of human lung mast cell release (histamine)” value (“inhibition” below) with human lung mast cells is given as “poorly inhibit”.
For `C[C@H](N[C@@H](CCc1ccccc1)C(=O)O)C(=O)N1CCC[C@H]1C(=O)O` [enalaprilat], the “effect on 48/80 potentiation of norepinephrine release” value in test [4] (nerve endings incubated with BILA2157 10 nM, enalaprilat 30 nM or EXP 3174 10 nM) is listed as “abolished”.
With `CCN(c1nc(N)c(C(=O)N=C(N)N)nc1Cl)C(C)C` [EIPA, 5-(N-ethyl-N-isopropyl)-amiloride], the “decrease” value in test [2] is on record as “about 50%”. Also, in [2] (angiotensin II 100 nM), the “effect on norepinephrine release induced” value was “blocked”.
As for `NC[C@H](O)c1ccc(O)c(O)c1` [norepinephrine], in the test with Na+/H+ exchanger [5], the “increase in Na+/H+ exchanger activity over control” value is “about 3 fold”.
With `CNCCCN1c2ccccc2CCc2ccccc21` [DMI, desipramine], in test [2], the “decrease” value was “about 50%”. The “effect on norepinephrine release induced” value in test [2] (angiotensin II 100 nM) was “blocked”.
Regarding “angiotensin II (DRVYIHPF; Angiotensin-2; UniProt P01019 25-32, looked up)”, in the test on Na+/H+ exchanger [5] (control 0.04), the “rate of Na+-dependent intracellular alkalinization” value amounted to 0.19 pH units/min. Besides, in the test on Na+/H+ exchanger [5], the “increase in Na+/H+ exchanger activity over control” value is “about 6 fold”. For the same compound, in the test on SH-SY5Y-AT1A cells [6] (10-min exposure), the “increase in MPP+ release above basal levels” value was 20%. The “increase in Na+-dependent intracellular pH recovery rate” value in the test on Na+/H+ exchanger [3] (angiotensin II 10 nM) was determined as 2.5 fold. The “intracellular calcium after angiotensin II” value in the test on SH-SY5Y-AT1A cells [1] (angiotensin II 10 nM, from about 60 nM basal) amounted to 220 nM. In test [2] (angiotensin II 100 nM), the “increase in norepinephrine release above basal level” value was found to be 27%.
`N#Cc1cc(NC(=O)C(=O)O)c(Cl)c(NC(=O)C(=O)O)c1` [lodoxamide]: the “ventricular fibrillation during reperfusion” value in the test on guinea-pig hearts is given as “no ventricular fibrillation; also recorded: prevent ventricular fibrillation”; in the test with guinea-pig hearts (listed as Lodoxamide) it was “prevented ventricular fibrillation”. Besides, in the test with guinea-pig hearts (BILA 2157 100 nM), the “renin overflow into coronary effluent on reperfusion” value was “no such increase occurs; also recorded: disappeared from the coronary effluent; also recorded: prevented renin release”. Further, in the test with cardiac mast cells, the “renin overflow into coronary effluent after 48/80 challenge” value is “abolished; also recorded: markedly diminished”. Further, in [7], the “chronotropic response to 48/80” value is given as “markedly abbreviated; also recorded: diminishes the chronotropic response”. Further, the “norepinephrine release when hearts perfused with stabilizer prior to 48/80” value in [4] (lodoxamide 10 μM) was “markedly attenuated”.
As for `CCCc1c2oc(C(=O)O)cc(=O)c2cc2c(=O)cc(C(=O)O)n(CC)c12` [nedocromil sodium], the “inhibition” value in the test on human lung mast cells was “poorly inhibit”.
With `CCCCCCCCCCCCCC(=O)O[C@@H]1[C@@H](C)[C@@]2(O)[C@@H](C=C(CO)C[C@]3(O)C(=O)C(C)=C[C@@H]23)[C@@H]2C(C)(C)[C@]12OC(C)=O` [PMA, phorbol 12-myristate 13-acetate], the “increase in the releasing effect of angiotensin II” value in the test on SH-SY5Y-AT1A cells [6] (8-min incubation with PMA) was 3 fold.
Turning to `CC(=O)OC[C@H]1O[C@@H]([S-])[C@H](OC(C)=O)[C@@H](OC(C)=O)[C@@H]1OC(C)=O.CCP(CC)CC.[Au+]` [auranofin], in the test with human lung mast cells, the “inhibition” value was “inhibited”.
Regarding `CC(Cc1ccc(O)cc1)NCC(O)c1cc(O)cc(O)c1` (stereo not drawn) [fenoterol], the “inhibition” value with human lung mast cells is given as “most potent global inhibitors”.
